Assay results published in patent publication US10421761B2, “Compounds for kinase modulation, and indications therefor” (Plexxikon Inc., priority 2013, dated 2019).

What was measured:
BRAF V600E = target: T1, BRAF V600E (Homo sapiens, UniProt P15056, V600E); assay: BRAF V600E biochemical kinase activity assay (AlphaScreen, biotin-MEK1 substrate); settings: BRAF V600E biochemical inhibitory activity
T1 construct: purchased Upstate Biotechnology

B9 (HRAS Q61L) cell line = assay: B9 P-ERK cell activation assay (AlphaScreen); type: cell-based, mouse; settings: Mus musculus; P-ERK cell activation, B9; numeric bounds; read-out: Cell activity (EC50 μM) B9_pERK
Outline: (§1)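 Phospho-ERK1/2 (Thr202/Tyr204) in lysates quantified via AlphaScreen bead proximity, after one-hour, 37° C. exposure of cells to eight compound concentrations. Lines: IPC-298 human melanoma with activated NRAS; B9 mouse squamous carcinoma with activated HRAS.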

[1] = test system: IPC-298 (NRAS Q61L) cell line; assay: IPC-298 P-ERK cell activation assay (AlphaScreen); type: cell-based, human; settings: Homo sapiens; P-ERK cell activation, IPC-298; numeric bounds; read-out: Cell activity (EC50 μM) IPC-298_P-ERK
Outline: as §1

[2] = test system: A375 (BRAF V600E) cell line; assay: A375 P-ERK inhibition assay (AlphaScreen); type: cell-based, human; settings: Homo sapiens, A-375; A375_P-ERK
Outline: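 Phospho-ERK1/2 (Thr202/Tyr204) detected in lysates by AlphaScreen proximity signal, pairing a total-ERK antibody with a phospho-specific antibody. Before lysis, A375 cells received compound as an 8-point titration for one hour at 37° C.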

T1 sequence (P15056 whole entry V600E): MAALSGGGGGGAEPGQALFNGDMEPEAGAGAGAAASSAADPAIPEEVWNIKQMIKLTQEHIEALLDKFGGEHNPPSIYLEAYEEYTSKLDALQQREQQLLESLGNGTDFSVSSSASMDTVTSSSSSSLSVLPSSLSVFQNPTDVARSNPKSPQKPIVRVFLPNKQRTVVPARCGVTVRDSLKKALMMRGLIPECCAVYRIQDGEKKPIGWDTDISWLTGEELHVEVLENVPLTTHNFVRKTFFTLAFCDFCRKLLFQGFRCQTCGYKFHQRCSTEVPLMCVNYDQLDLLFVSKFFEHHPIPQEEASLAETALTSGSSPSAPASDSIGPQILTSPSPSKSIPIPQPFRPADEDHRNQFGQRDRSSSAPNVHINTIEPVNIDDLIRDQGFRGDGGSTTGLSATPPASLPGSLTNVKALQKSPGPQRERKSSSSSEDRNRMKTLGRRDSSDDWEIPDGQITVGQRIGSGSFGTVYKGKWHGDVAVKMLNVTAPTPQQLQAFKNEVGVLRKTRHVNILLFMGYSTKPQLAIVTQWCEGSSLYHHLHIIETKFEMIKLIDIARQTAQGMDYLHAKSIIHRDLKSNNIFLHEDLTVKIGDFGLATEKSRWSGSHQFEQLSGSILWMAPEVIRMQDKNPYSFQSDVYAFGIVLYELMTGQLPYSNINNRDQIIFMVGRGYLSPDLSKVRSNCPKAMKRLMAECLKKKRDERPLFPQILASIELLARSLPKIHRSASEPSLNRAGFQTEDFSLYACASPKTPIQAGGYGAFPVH

Row | Compound | IC50 (BRAF V600E) [µM] | EC50 (B9 (HRAS Q61L) cell line) [µM] | EC50 [1] [µM] | IC50 [2] [µM]
1 | O=C(c1cccc(NS(=O)(=O)N2CCCC2)c1F)c1c[nH]c2ncnc(NC[C@@H]3CCCO3)c12 [P-2082, N-[2-fluoro-3-[4-[[(2S)-tetrahydrofuran-2-yl]methylamino]-7H-pyrrolo[2,3-d]pyrimidine-5-carbonyl]phenyl]pyrrolidine-1-sulfonamide] | 0.0001 to 1 | > 10 | > 10 | 0.0001 to 1
2 | CN(C)CC(C)(C)CNc1ncnc2[nH]cc(C(=O)c3cccc(NS(=O)(=O)N4CCCC4)c3F)c12 [P-2113, N-[3-[4-[[3-(dimethylamino)-2,2-dimethyl-propyl]amino]-7H-pyrrolo[2,3-d]pyrimidine-5-carbonyl]-2-fluoro-phenyl]pyrrolidine-1-sulfonamide] | 0.0001 to 1 | > 10 | > 10 | 0.0001 to 1
3 | CC(C)(C)c1nc(-c2cccc(NS(=O)(=O)N3CCCC3)c2F)c(-c2ccnc3[nH]ccc23)s1 [P-2120, N-[3-[2-tert-butyl-5-(1H-pyrrolo[2,3-b]pyridin-4-yl)thiazol-4-yl]-2-fluoro-phenyl]pyrrolidine-1-sulfonamide] | 0.0001 to 1 | > 10 | > 10 | 1 to 10
4 | CCC(C)S(=O)(=O)Nc1cccc(-c2nc(C(C)(C)C)sc2-c2ccnc(N)n2)c1F (stereo not shown) [P-2106, N-[3-[5-(2-aminopyrimidin-4-yl)-2-tert-butyl-thiazol-4-yl]-2-fluoro-phenyl]butane-2-sulfonamide] | 0.0001 to 1 | > 10 | > 10 | 0.0001 to 1
5 | CCN(C)S(=O)(=O)Nc1cccc(C(=O)c2c[nH]c3ncnc(NC[C@@H]4CCCO4)c23)c1F [P-2074, 5-[3-[[ethyl(methyl)sulfamoyl]amino]-2-fluoro-benzoyl]-4-[[(2S)-tetrahydrofuran-2-yl]methylamino]-7H-pyrrolo[2,3-d]pyrimidine] | 0.0001 to 1 | > 10 | > 10 | 0.0001 to 1
6 | COCCCNc1ncnc2[nH]cc(C(=O)c3cccc(NS(=O)(=O)N4CCCC4)c3F)c12 [P-2105, N-[2-fluoro-3-[4-(3-methoxypropylamino)-7H-pyrrolo[2,3-d]pyrimidine-5-carbonyl]phenyl]pyrrolidine-1-sulfonamide] | 0.0001 to 1 | > 10 | > 10 | 0.0001 to 1
7 | COc1ccnc2[nH]cc(C(=O)c3c(F)ccc(NS(=O)(=O)C4CCCCC4)c3F)c12 [Compound P-2005, N-[2,4-difluoro-3-(4-methoxy-1H-pyrrolo[2,3-b]pyridine-3-carbonyl)phenyl]cyclohexanesulfonamide] | 0.0001 to 1 | > 10 | > 10 | 1 to 10
8 | O=C(c1cc(Cl)cc(NS(=O)(=O)N2CCCC2)c1F)c1c[nH]c2ncc(-c3cnc(C4CC4)nc3)cc12 [P-2180, N-(5-chloro-3-(5-(2-cyclopropylpyrimidin-5-yl)-1H-pyrrolo[2,3-b]pyridine-3-carbonyl)-2-fluorophenyl)pyrrolidine-1-sulfonamide] | 0.0001 to 1 | > 10 | > 10 | < 1
9 | COc1ccnc2[nH]cc(C(=O)c3c(F)ccc(NS(=O)(=O)N4CCOCC4)c3F)c12 [P-2023, N-[2,4-difluoro-3-(4-methoxy-1H-pyrrolo[2,3-b]pyridine-3-carbonyl)phenyl]morpholine-4-sulfonamide] | 0.0001 to 1 | > 10 | > 10 | 1 to 10
10 | O=C(c1cc(Cl)cc(NS(=O)(=O)N2CC[C@@H](F)C2)c1F)c1c[nH]c2ncc(-c3cnc(C4CC4)nc3)cc12 [P-2174, (3R)—N-[5-chloro-3-[5-(2-cyclopropylpyrimidin-5-yl)-1H-pyrrolo[2,3-b]pyridine-3-carbonyl]-2-fluoro-phenyl]-3-fluoro-pyrrolidine-1-sulfonamide] | 0.0001 to 1 | > 10 | > 10 | 0.0001 to 1
11 | COc1ncnc2[nH]cc(C(=O)c3cccc(NS(=O)(=O)N4CCCC4)c3F)c12 [P-2084, N-[2-fluoro-3-(4-methoxy-7H-pyrrolo[2,3-d]pyrimidine-5-carbonyl)phenyl]pyrrolidine-1-sulfonamide] | 0.0001 to 1 | > 10 | > 10 | 0.0001 to 1

Second part, the compound after the results:

Row | IC50 (BRAF V600E) [µM] | EC50 (B9 (HRAS Q61L) cell line) [µM] | EC50 [1] [µM] | IC50 [2] [µM] | Compound
12 | 0.0001 to 1 | > 10 | > 10 | 0.0001 to 1 | CCN(C)S(=O)(=O)Nc1cccc(C(=O)c2c[nH]c3ncnc(N[C@H](C)C4CC4)c23)c1F [P-2079, 4-[[(1R)-1-cyclopropylethyl]amino]-5-[3-[[ethyl(methyl)sulfamoyl]amino]-2-fluoro-benzoyl]-7H-pyrrolo[2,3-d]pyrimidine]
13 | 0.0001 to 1 | > 10 | > 10 | 0.0001 to 1 | CCCNc1ncnc2[nH]cc(C(=O)c3c(F)ccc(NS(=O)(=O)N(C)CC)c3F)c12 [P-2099, 5-[3-[[ethyl(methyl)sulfamoyl]amino]-2,6-difluoro-benzoyl]-4-(propylamino)-7H-pyrrolo[2,3-d]pyrimidine]
14 | 0.0001 to 1 | > 10 | > 10 | 0.0001 to 1 | CCN(C)S(=O)(=O)Nc1cccc(C(=O)c2c[nH]c3ncnc(C)c23)c1F [P-2090, 5-[3-[[ethyl(methyl)sulfamoyl]amino]-2-fluoro-benzoyl]-4-methyl-7H-pyrrolo[2,3-d]pyrimidine]
15 | 0.0001 to 1 | > 10 | > 10 | > 10 | COc1ccnc2[nH]cc(C(=O)c3c(F)ccc(NS(=O)(=O)C(C)C)c3F)c12 [Compound P-2001, N-[2,4-difluoro-3-(4-methoxy-1H-pyrrolo[2,3-b]pyridine-3-carbonyl)phenyl]propane-2-sulfonamide]
16 | 0.0001 to 1 | > 10 | > 10 | 1 to 10 | CCCC(C)S(=O)(=O)Nc1ccc(F)c(C(=O)c2c[nH]c3nccc(OC)c23)c1F (stereo not shown) [Compound P-2009, N-[2,4-difluoro-3-(4-methoxy-1H-pyrrolo[2,3-b]pyridine-3-carbonyl)phenyl]pentane-2-sulfonamide]
17 | 0.0001 to 1 | > 10 | > 10 | 0.0001 to 1 | CCC(C)S(=O)(=O)Nc1ccc(F)c(C(=O)c2c[nH]c3nccc(OC)c23)c1F (stereo not shown) [Compound P-2006, N-[2,4-difluoro-3-(4-methoxy-1H-pyrrolo[2,3-b]pyridine-3-carbonyl)phenyl]butane-2-sulfonamide]
18 | 0.0001 to 1 | > 10 | > 10 | 0.0001 to 1 | CCN(C)S(=O)(=O)Nc1cccc(C(=O)c2c[nH]c3ncnc(NCC(F)(F)F)c23)c1F [P-2065, 5-[3-[[ethyl(methyl)sulfamoyl]amino]-2-fluoro-benzoyl]-4-(2,2,2-trifluoroethylamino)-7H-pyrrolo[2,3-d]pyrimidine]
19 | 0.0001 to 1 | > 10 | > 10 | 0.0001 to 1 | CCN(C)S(=O)(=O)Nc1cccc(C(=O)c2c[nH]c3ncnc(NCCCOC)c23)c1F [P-2115, 5-[3-[[ethyl(methyl)sulfamoyl]amino]-2-fluoro-benzoyl]-4-(3-methoxypropylamino)-7H-pyrrolo[2,3-d]pyrimidine]
20 | 0.0001 to 1 | > 10 | > 10 | 0.0001 to 1 | O=C(c1c(F)ccc(NS(=O)(=O)C2CCCCC2)c1F)c1c[nH]c2ncnc(NCC3CC3)c12 [P-2049, N-[3-[4-(cyclopropylmethylamino)-7H-pyrrolo[2,3-d]pyrimidine-5-carbonyl]-2,4-difluoro-phenyl]cyclohexanesulfonamide]
21 | 0.0001 to 1 | > 10 | > 10 | 1 to 10 | COc1ccnc2[nH]cc(C(=O)c3c(F)ccc(NS(=O)(=O)C4CCC4)c3F)c12 [Compound P-2010, N-[2,4-difluoro-3-(4-methoxy-1H-pyrrolo[2,3-b]pyridine-3-carbonyl)phenyl]cyclobutanesulfonamide]
22 | 0.0001 to 1 | > 10 | > 10 | 0.0001 to 1 | CCC(C)S(=O)(=O)Nc1ccc(F)c(C(=O)c2c[nH]c3nccc(C#N)c23)c1F (stereo not shown) [P-2020, N-[3-(4-cyano-1H-pyrrolo[2,3-b]pyridine-3-carbonyl)-2,4-difluoro-phenyl]butane-2-sulfonamide]
23 | 0.0001 to 1 | > 10 | > 10 | 0.0001 to 1 | CCN(C)S(=O)(=O)Nc1cccc(C(=O)c2c[nH]c3ncnc(NCCOC)c23)c1F [P-2073, 5-[3-[[ethyl(methyl)sulfamoyl]amino]-2-fluoro-benzoyl]-4-(2-methoxyethylamino)-7H-pyrrolo[2,3-d]pyrimidine]
24 | 0.0001 to 1 | > 10 | > 10 | 0.0001 to 1 | CC(C)Nc1ncnc2[nH]cc(C(=O)c3c(F)ccc(NS(=O)(=O)N(C)C)c3F)c12 [P-2045, 5-[3-(dimethylsulfamoylamino)-2,6-difluoro-benzoyl]-4-(isopropylamino)-7H-pyrrolo[2,3-d]pyrimidine]
25 | 0.0001 to 1 | > 10 | > 10 | 0.0001 to 1 | CCCNc1ncnc2[nH]cc(C(=O)c3cccc(NS(=O)(=O)N(C)CC)c3F)c12 [P-2066, 5-[3-[[ethyl(methyl)sulfamoyl]amino]-2-fluoro-benzoyl]-4-(propylamino)-7H-pyrrolo[2,3-d]pyrimidine]
